US20060159777A1, “Aqueous acaricidal solution” (SOLVAY (SOCIETE ANONYME), priority 2002, published 2006)
Where two headings read alike, the source gives them in different places.

Experiments:
[1] = system: dermatophagoides pteronyssinus; details: approximately 200 acarids deposited
Description: The procedure was carried out as in example 1, except that the acaricidal aqueous solution was not applied by sprinkling, but the pieces of standard cotton wool (150 g/m^2) were immersed in baths of sodium bicarbonate solution.
Three sodium bicarbonate concentrations were used: 10, 30 and 50 g/l.
After drying of the textiles, approximately 200 acarids of all stages were deposited thereon and the acarid mortality was measured as a function of time.
The acarid mortality was noted after 3 and 6 weeks.
Each experimental series was also repeated three times and the means of the mortality results obtained were taken.

[2] = system: dermatophagoides pteronyssinus
Description: Acarids (dermatophagoides pteronyssinus) originating from a laboratory strain raised on a substrate consisting of a 50/50 (mass/mass) mixture of wheatgerm and of brewer's yeast as flakes calibrated by sieving (fragments of less than 1 mm in size) were used. The temperature was between 23 and 25° C. and the relative humidity was maintained at 75% by placing in the presence of a saturated aqueous ammonium sulphate solution ([NH4)2SO4]); the strain was conserved in the dark.
Pieces of standard cotton wool (150 g/m^2) were pre-infested with approximately 200 acarids of all stages.
The pieces of cotton wool were then treated by sprinkling with an aqueous solution obtained by mixing 10, 30 or 50 g/l of sodium bicarbonate into water.
Two rates of application of the solution were used: 30 and 50 ml/m^2.
The sodium bicarbonate solution was sprayed and projected evenly and precisely over the cotton wool surfaces.
The mortality of the acarids was noted after 15 min, 1 h, 2 h, 4 h and 24 h.
A control batch of acarids was monitored in parallel so as to determine the natural mortality of the acarids subjected to spraying with the same volume of water.
Each experimental series was repeated three times and the means of the mortality results obtained were taken.

How did the Survivors ([1]; immersion bath 10 g/l, after 3 weeks) turn out when `O=C([O-])O.[Na+]` [Sodium bicarbonate, sodium bicarbonate] was run?
Its Survivors is 212.8.

What about the Survivors ([1]; immersion bath 10 g/l, after 6 weeks) of the same compound?
The Survivors was 818.3.

What about the Survivors ([1]; immersion bath 30 g/l, after 3 weeks) of the same compound?
Its Survivors is 153.5.

And the Survivors ([1]; immersion bath 30 g/l, after 6 weeks)?
The Survivors was 245.0.

What about the Survivors ([1]; immersion bath 50 g/l, after 3 weeks) of the same compound?
Its Survivors is 53.5.

And the Survivors ([1]; immersion bath 50 g/l, after 6 weeks)?
Its Survivors is 143.0.

And the “% mortality” value ([2]; 10 g bicarb/1, 30 ml/m^2 (0.3 g bicarb/m^2), contact time 15 minutes)?
Its value is 0.0%.

And the “% mortality” value ([2]; 10 g bicarb/1, 30 ml/m^2 (0.3 g bicarb/m^2), contact time 1 hour)?
The value was 0.0%.

And the “% mortality” value ([2]; 10 g bicarb/1, 30 ml/m^2 (0.3 g bicarb/m^2), contact time 2 hours)?
The value was 0.2%.

And the “% mortality” value ([2]; 10 g bicarb/1, 30 ml/m^2 (0.3 g bicarb/m^2), contact time 4 hours)?
Its value is 0.5%.

And the “% mortality” value ([2]; 10 g bicarb/1, 30 ml/m^2 (0.3 g bicarb/m^2), contact time 24 hours)?
The value was 18.5%.

And the “% mortality” value ([2]; 10 g bicarb/1, 50 ml/m^2 (0.5 g bicarb/m^2), contact time 15 minutes)?
The value was 0.0%.

What about the “% mortality” value ([2]; 10 g bicarb/1, 50 ml/m^2 (0.5 g bicarb/m^2), contact time 1 hour) of the same compound?
The value was 0.0%.

And the “% mortality” value ([2]; 10 g bicarb/1, 50 ml/m^2 (0.5 g bicarb/m^2), contact time 2 hours)?
The value was 2.1%.

What about the “% mortality” value ([2]; 10 g bicarb/1, 50 ml/m^2 (0.5 g bicarb/m^2), contact time 4 hours) of the same compound?
The value was 20.9%.

And the “% mortality” value ([2]; 10 g bicarb/1, 50 ml/m^2 (0.5 g bicarb/m^2), contact time 24 hours)?
Its value is 35.8%.

And the “% mortality” value ([2]; 30 g bicarb/1, 30 ml/m^2 (0.9 g bicarb/m^2), contact time 15 minutes)?
Its value is 0.0%.

What about the “% mortality” value ([2]; 30 g bicarb/1, 30 ml/m^2 (0.9 g bicarb/m^2), contact time 1 hour) of the same compound?
Its value is 0.0%.

And the “% mortality” value ([2]; 30 g bicarb/1, 30 ml/m^2 (0.9 g bicarb/m^2), contact time 2 hours)?
Its value is 0.0%.

And the “% mortality” value ([2]; 30 g bicarb/1, 30 ml/m^2 (0.9 g bicarb/m^2), contact time 4 hours)?
Its value is 0.7%.

And the “% mortality” value ([2]; 30 g bicarb/1, 30 ml/m^2 (0.9 g bicarb/m^2), contact time 24 hours)?
Its value is 19.7%.

What about the “% mortality” value ([2]; 30 g bicarb/1, 50 ml/m^2 (1.5 g bicarb/m^2), contact time 15 minutes) of the same compound?
The value was 0.0%.

And the “% mortality” value ([2]; 30 g bicarb/1, 50 ml/m^2 (1.5 g bicarb/m^2), contact time 1 hour)?
The value was 0.0%.

And the “% mortality” value ([2]; 30 g bicarb/1, 50 ml/m^2 (1.5 g bicarb/m^2), contact time 2 hours)?
Its value is 3.4%.

What about the “% mortality” value ([2]; 30 g bicarb/1, 50 ml/m^2 (1.5 g bicarb/m^2), contact time 4 hours) of the same compound?
Its value is 25.1%.

What about the “% mortality” value ([2]; 30 g bicarb/1, 50 ml/m^2 (1.5 g bicarb/m^2), contact time 24 hours) of the same compound?
The value was 39.9%.

What about the “% mortality” value ([2]; 50 g bicarb/1, 30 ml/m^2 (1.5 g bicarb/m^2), contact time 15 minutes) of the same compound?
The value was 0.0%.

And the “% mortality” value ([2]; 50 g bicarb/1, 30 ml/m^2 (1.5 g bicarb/m^2), contact time 1 hour)?
Its value is 0.0%.

What about the “% mortality” value ([2]; 50 g bicarb/1, 30 ml/m^2 (1.5 g bicarb/m^2), contact time 2 hours) of the same compound?
Its value is 0.0%.

What about the “% mortality” value ([2]; 50 g bicarb/1, 30 ml/m^2 (1.5 g bicarb/m^2), contact time 4 hours) of the same compound?
Its value is 5.2%.

What about the “% mortality” value ([2]; 50 g bicarb/1, 30 ml/m^2 (1.5 g bicarb/m^2), contact time 24 hours) of the same compound?
Its value is 88.0%.

And the “% mortality” value ([2]; 50 g bicarb/1, 50 ml/m^2 (2.5 g bicarb/m^2), contact time 15 minutes)?
Its value is 0.0%.

What about the “% mortality” value ([2]; 50 g bicarb/1, 50 ml/m^2 (2.5 g bicarb/m^2), contact time 1 hour) of the same compound?
The value was 0.0%.

And the “% mortality” value ([2]; 50 g bicarb/1, 50 ml/m^2 (2.5 g bicarb/m^2), contact time 2 hours)?
Its value is 2.8%.

And the “% mortality” value ([2]; 50 g bicarb/1, 50 ml/m^2 (2.5 g bicarb/m^2), contact time 4 hours)?
Its value is 58.9%.

What about the “% mortality” value ([2]; 50 g bicarb/1, 50 ml/m^2 (2.5 g bicarb/m^2), contact time 24 hours) of the same compound?
The value was 95.7%.
